Broadly, the IC50 is the concentration needed to halve the response being measured. Broadly, the IC90 is the point of the concentration-response curve where the effect stands at 90%.

The text below walks through data of ChEMBL document CHEMBL4483862, “Open-source discovery of chemical leads for next-generation chemoprotective antimalarials” (2018).

The test concerns Plasmodium berghei. The test is described as follows: Luciferase/luciferin-expressing antifolate-resistant parasites were used to infect a culture of HepG2 cells that were pre-incubated with compounds. Infected hepatocytes emit light due to the luciferase reaction. Assay results are presented as the percent inhibition of light emission compared to control. […]. Type of test: functional. Particulars: sporozoite; for IC90: read-out: LUCIFERASE INFECTION ASSAY - IC90.

Where [1] appears, read: read-out: LUCIFERASE INFECTION ASSAY - IC50.

As to `COCCCN=C(S)NNC(=O)c1ccc(C(C)(C)C)cc1`, the IC90 is > 10.2 µM. The IC50 (PBLUC_HILL_SLOPE 2.41, PBLUC_R_SQUARED 0.0684, read-out: LUCIFERASE INFECTION ASSAY - IC50) was determined as 8.61 µM.

For the molecule `Cc1ccc(Oc2ccc(OCC(=O)NC3CCN(C(C)C)CC3)cc2)cc1`, the IC90 was > 10 µM. The IC50 under setting [1] is > 10 µM.

For `O=C(Nc1ccc(-c2nc3ccccc3[nH]2)cc1)c1cccc(S(=O)(=O)NC2CC2)c1`, the IC90 stood at 3 µM. Moreover, under “HEPG2TOX_HILL_SLOPE 2.58, HEPG2TOX_R_SQUARED 0.64, PBLUC_HILL_SLOPE 5.30, 5.83, PBLUC_R_SQUARED 0.508, 0.438, read-out: LUCIFERASE INFECTION ASSAY - IC50”, the IC50 is 2.03 µM.

With `C/C(=N\NC(=S)Nc1cccc(C(F)(F)F)c1)c1cc(Cl)ccc1O`, the IC90 was > 8.51 µM. Where the note is “HEPG2TOX_HILL_SLOPE 6.81, HEPG2TOX_R_SQUARED 0.836, PBLUC_HILL_SLOPE 11, PBLUC_R_SQUARED 0.0541, read-out: LUCIFERASE INFECTION ASSAY - IC50”, the IC50 was found to be 7.79 µM.

In the case of `Cc1ccc(C(=O)Nc2nc(-c3ccccn3)cs2)cc1S(=O)(=O)N1CCOCC1`, the IC90 is 9.81 µM. The IC50 (HEPG2TOX_HILL_SLOPE 1.67, HEPG2TOX_R_SQUARED 0.851, PBLUC_HILL_SLOPE 9.71, PBLUC_R_SQUARED 0.0304, read-out: LUCIFERASE INFECTION ASSAY - IC50) came to 7.83 µM.

For `O=C(NCCOc1ccccc1F)NCC1CC1`, the IC90 was > 10 µM. For the same molecule, the IC50 under setting [1] is > 10 µM.

On to `CCCCC(=O)OCC(=O)Nc1nc(-c2ccc(C)cc2O)cs1`, for which the IC90 was > 10 µM. Besides, under setting [1], the IC50 is > 10 µM.

`Brc1ccc(Nn2c(-c3ccccc3)nc3c2C2C=CC=CC2C=N3)cc1` (configuration not stated): the concentration for an effect of 90% (IC90) turned out to be 5.07 µM. Further, the IC50 under setting [1] stood at 3.6 µM.

With `Cc1cc2nnc(-c3ccc(C(F)(F)F)cc3)n2[nH]1`, the IC90 is > 12.4 µM. Besides, the IC50 (FFLUC_HILL_SLOPE 9.36, FFLUC_R_SQUARED 0.07, PBLUC_HILL_SLOPE 1.33, PBLUC_R_SQUARED 0.805, read-out: LUCIFERASE INFECTION ASSAY - IC50) is 3.1 µM.

As to `O=C(COC(=O)COc1ccc2c3c(c(=O)oc2c1)CCC3)Nc1ccc(F)c(F)c1F`, the IC90 was > 10 µM. In addition, under setting [1], the IC50 is > 10 µM.

As for `CCCN1C/C(=C/c2csnn2)C(=O)/C(=C/c2csnn2)C1`, the IC90 is > 10 µM. For the same molecule, under “HEPG2TOX_HILL_SLOPE 13.3, HEPG2TOX_R_SQUARED 0.713, read-out: LUCIFERASE INFECTION ASSAY - IC50”, the IC50 was > 10 µM.

For `CCOC(=O)COc1ccccc1/C=C(/C#N)S(=O)(=O)c1ccccc1`, the IC90 was > 8.89 µM. Further, under setting [1], the IC50 was > 8.89 µM.

Turning to `CC(C)(C)c1ccc(C(=O)Nc2nonc2-c2ccc(F)cc2)cc1`, the 90% effect concentration (IC90) is > 9.72 µM. The IC50 under setting [1] is > 9.72 µM.

For the molecule `Cc1nn(-c2ccccc2)c2c1C(C(F)(F)F)(C(F)(F)F)OC(c1cccc(S(=O)(=O)N3CCCCC3)c1)=N2`, the 90% effect concentration (IC90) is > 10 µM. For the same molecule, the half-maximal inhibitory concentration (IC50) under setting [1] is > 10 µM.

Regarding `CCN(c1ccccc1)S(=O)(=O)c1ccc(NNC(=O)Nc2cccc3ccccc23)nc1`, the IC90 was > 10 µM. Further, the concentration for half-maximal inhibition (IC50) under setting [1] is 8.75 µM.

As to `CC(=O)c1ccccc1OCCOC(=O)/C(C#N)=C/c1cc(C)n(CCC(C)C)c1C`, the IC90 is 1.72 µM. Moreover, the IC50 (HEPG2TOX_HILL_SLOPE 0.948, HEPG2TOX_R_SQUARED 0.676, PBLUC_HILL_SLOPE 14.8, PBLUC_R_SQUARED 0.615, read-out: LUCIFERASE INFECTION ASSAY - IC50) worked out at 1.48 µM.

Take `CN(CC(=O)Nc1nc(C23CC4CC(CC(C4)C2)C3)cs1)S(=O)(=O)c1cccs1`: the IC90 turned out to be 3.45 µM. For the same molecule, the IC50 (FFLUC_HILL_SLOPE 3.68, FFLUC_R_SQUARED 0.43, PBLUC_HILL_SLOPE 112, PBLUC_R_SQUARED 0.327, read-out: LUCIFERASE INFECTION ASSAY - IC50) is 3.38 µM.

In the case of `COC(=O)c1cccc(C(=O)Nc2nccn2Cc2ccccc2)c1`, the IC90 turned out to be 9.3 µM. Moreover, the IC50 (PBLUC_HILL_SLOPE 5.71, PBLUC_R_SQUARED 0.673, read-out: LUCIFERASE INFECTION ASSAY - IC50) is 6.33 µM.

As to `O=[N+]([O-])c1cnc(Sc2nnc(SCC3CC3)s2)s1`, the IC90 is > 9.93 µM. Also, the IC50 (PBLUC_HILL_SLOPE 11.6, PBLUC_R_SQUARED 0.0358, read-out: LUCIFERASE INFECTION ASSAY - IC50) amounted to 9.69 µM.

For the molecule `CC(C)c1ccc(-c2csc(NC(=O)c3cccc(NC(=O)C4CCCO4)c3)n2)cc1` (configuration not stated), the IC90 was > 10 µM. For the same molecule, the IC50 (PBLUC_HILL_SLOPE 15.4, PBLUC_R_SQUARED 0.296, read-out: LUCIFERASE INFECTION ASSAY - IC50) is 9.87 µM.

For `O=C(N/N=C/c1c(Cl)nc2ccccn2c1=O)c1ccc(F)cc1`, the IC90 is > 10 µM. The IC50 under setting [1] was > 10 µM.

In the case of `CC1CN(C(=O)c2ccc(CN3C(=O)CNC3=O)cc2)CCO1` (configuration not stated), the 90% effect concentration (IC90) is > 10 µM. Moreover, the 50% inhibitory concentration (IC50) under setting [1] is > 10 µM.

In the case of `CSc1sc(C#N)c(C)c1-c1ccon1`, the IC90 is > 14 µM. For the same molecule, for the setting “PBLUC_HILL_SLOPE 9.35, PBLUC_R_SQUARED 0.116, read-out: LUCIFERASE INFECTION ASSAY - IC50”, the 50% inhibitory concentration (IC50) is > 14 µM.

Take `Cc1cccc2c(=O)nc(CSc3ncnc4sc(-c5ccccc5)cc34)[nH]c12`: the IC90 is > 10 µM. Further, under “HEPG2TOX_HILL_SLOPE 2.96, HEPG2TOX_R_SQUARED 0.569, read-out: LUCIFERASE INFECTION ASSAY - IC50”, the IC50 is > 10 µM.

Take `Cc1ccc2c(Cl)cc(Cl)c(OCN3C(=O)c4ccccc4C3=O)c2n1`: the IC90 turned out to be 5.83 µM. The IC50 (PBLUC_HILL_SLOPE 5.8, PBLUC_R_SQUARED 0.551, read-out: LUCIFERASE INFECTION ASSAY - IC50) is 3.99 µM.

In the case of `COC(=O)C1=C(Nc2ccc(OS(=O)(=O)c3ccc(Cl)cc3)cc2)CSC1`, the IC90 was > 7.75 µM. Under setting [1], the IC50 was > 7.75 µM.

As for `COc1cc2c(cc1OC)C(c1ccccc1Cl)N(C(=O)c1sc3ccccc3c1Cl)CC2` (configuration not stated), the concentration for an effect of 90% (IC90) is > 6.62 µM. Moreover, the IC50 (PBLUC_HILL_SLOPE 2.93, PBLUC_R_SQUARED 0.186, read-out: LUCIFERASE INFECTION ASSAY - IC50) was determined as 4.9 µM.

As to `Cc1nc(SC(C)C(=O)c2c[nH]c3ccccc23)c2c(=O)n(C)c(=O)n(CC(C)C)c2n1` (configuration not stated), the IC90 is > 10 µM. Moreover, the IC50 (FFLUC_HILL_SLOPE 11.3, FFLUC_R_SQUARED 0.363, PBLUC_HILL_SLOPE 2.42, PBLUC_R_SQUARED 0.455, read-out: LUCIFERASE INFECTION ASSAY - IC50) was determined as 7.35 µM.

On to `CC(C)Cc1ccc(C2=Nn3c(nnc3-c3cccs3)SC2C)cc1` (configuration not stated), for which the 90% effect concentration (IC90) is > 7.34 µM. Under setting [1], the IC50 was > 7.34 µM.

For `CNC(=O)c1ccc2n1CCN(C(=O)OCc1ccccc1)C2C` (configuration not stated), the 90% effect concentration (IC90) is > 10 µM. Further, the IC50 (PBLUC_HILL_SLOPE 1.5, PBLUC_R_SQUARED 0.67, read-out: LUCIFERASE INFECTION ASSAY - IC50) was 3.17 µM.

Take `CCN(CC(=O)Nc1ccccc1-c1ccccc1)Cc1nc(O)c2ccccc2n1`: the IC90 was determined as 7.89 µM. The IC50 (FFLUC_HILL_SLOPE 18, FFLUC_R_SQUARED 0.273, HEPG2TOX_HILL_SLOPE 1.8, HEPG2TOX_R_SQUARED 0.962, PBLUC_HILL_SLOPE 1.44, PBLUC_R_SQUARED 0.751, read-out: LUCIFERASE INFECTION ASSAY - IC50) was determined as 1.72 µM.

On to `CC(=O)N(c1nc(/C=C2\CCOc3ccc(F)cc3C2=O)cs1)c1cccc(C)c1C`, for which the IC90 is > 10 µM. Besides, the IC50 (FFLUC_HILL_SLOPE 1.6, FFLUC_R_SQUARED 0.338, PBLUC_HILL_SLOPE 1.6, PBLUC_R_SQUARED 0.162, read-out: LUCIFERASE INFECTION ASSAY - IC50) is > 10 µM.

Take `O=S(=O)(CCSc1ccc(C(F)(F)F)cn1)c1ccc(OC(F)(F)F)cc1`: the IC90 is > 7.65 µM. The IC50 under setting [1] is > 7.65 µM.

Turning to `COc1ccc(-c2nc(CN(c3ccccc3)S(=O)(=O)c3ccccc3)co2)cc1`, the IC90 is > 10 µM. Further, the IC50 (PBLUC_HILL_SLOPE 12.4, PBLUC_R_SQUARED 0.25, read-out: LUCIFERASE INFECTION ASSAY - IC50) is > 10 µM.

With `CCOC(=O)c1c[nH]nc1S(=O)(=O)Nc1ccc[nH]c1=O`, the concentration for an effect of 90% (IC90) was > 10 µM. In addition, under setting [1], the IC50 is > 10 µM.

For the molecule `COc1ccc(-c2cnc3sc(NCCc4ccncc4)nn23)cn1`, the IC90 was > 9.36 µM. Also, under setting [1], the IC50 was > 9.36 µM.

Take `Cc1ccc(/C=C2\Oc3cc(O)cc(C)c3C2=O)cc1`: the IC90 was determined as 7.36 µM. Further, the IC50 (FFLUC_HILL_SLOPE 2.5, FFLUC_R_SQUARED 0.135, PBLUC_HILL_SLOPE 2.13, PBLUC_R_SQUARED 0.666, read-out: LUCIFERASE INFECTION ASSAY - IC50) worked out at 2.63 µM.

For the molecule `Cc1cc(C)c(-c2csc(NC(=O)c3ccccc3SCC(=O)NCC3CCCCC3)n2)cc1C`, the IC90 amounted to 4.99 µM. In addition, the IC50 (FFLUC_HILL_SLOPE 1.8, FFLUC_R_SQUARED 0.211, HEPG2TOX_HILL_SLOPE 0.456, HEPG2TOX_R_SQUARED 0.807, PBLUC_HILL_SLOPE 10.4, PBLUC_R_SQUARED 0.477, read-out: LUCIFERASE INFECTION ASSAY - IC50) is 4.04 µM.

Turning to `COc1cccc(C(=O)Nc2nc3ccc(Br)cn3n2)c1`, the IC90 was > 9.51 µM. Further, for the setting “HEPG2TOX_HILL_SLOPE 1.29, HEPG2TOX_R_SQUARED 0.954, read-out: LUCIFERASE INFECTION ASSAY - IC50”, the half-inhibitory concentration (IC50) was > 9.51 µM.

Turning to `O=C(NCC(=O)N1CCCC1)c1cccc2c3c([nH]c12)CCCCC3`, the IC90 is 3.72 µM. The IC50 (PBLUC_HILL_SLOPE 19.4, PBLUC_R_SQUARED 0.17, read-out: LUCIFERASE INFECTION ASSAY - IC50) was 3.32 µM.

With `CSc1sc(C(=O)N/N=C/c2ccc(Cl)cc2)c2c1C1(CCC2)SCCS1`, the IC90 is > 7.25 µM. In addition, under setting [1], the IC50 is > 7.25 µM.
